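48-hour exposure; five concentrations; linearly interpolated endpoints. At the TGI there is no net growth.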
How the values were obtained:
Test in all cases: NCI-60 cell line screen, 48 h
786-0 renal = system: 786-0 renal
A498 renal = system: A498 renal
A549 NSCLC = system: A549 NSCLC
ACHN renal = system: ACHN renal
BT-549 breast = system: BT-549 breast
CAKI-1 renal = system: CAKI-1 renal
CCRF-CEM leukemia = system: CCRF-CEM leukemia
COLO 205 colon = system: COLO 205 colon
DU-145 prostate = system: DU-145 prostate
EKVX NSCLC = system: EKVX NSCLC
HCC-2998 colon = system: HCC-2998 colon
HCT-116 colon = system: HCT-116 colon
HCT-15 colon = system: HCT-15 colon
HL-60(TB) leukemia = system: HL-60(TB) leukemia
HOP-62 NSCLC = system: HOP-62 NSCLC
HOP-92 NSCLC = system: HOP-92 NSCLC
HT29 colon = system: HT29 colon
IGROV1 ovarian = system: IGROV1 ovarian
K-562 leukemia = system: K-562 leukemia
KM12 colon = system: KM12 colon
LOX IMVI melanoma = system: LOX IMVI melanoma
M14 melanoma = system: M14 melanoma
MCF7 breast = system: MCF7 breast
MDA-MB-231 breast = system: MDA-MB-231 breast
MDA-MB-435 = system: MDA-MB-435
MDA-N = system: MDA-N
MOLT-4 leukemia = system: MOLT-4 leukemia
NCI-H226 lung = system: NCI-H226 lung
NCI-H23 lung = system: NCI-H23 lung
NCI-H522 lung = system: NCI-H522 lung
NCI/ADR-RES ovarian = system: NCI/ADR-RES ovarian
OVCAR-3 ovarian = system: OVCAR-3 ovarian
OVCAR-4 ovarian = system: OVCAR-4 ovarian
OVCAR-5 ovarian = system: OVCAR-5 ovarian
OVCAR-8 ovarian = system: OVCAR-8 ovarian
PC-3 prostate = system: PC-3 prostate
RPMI-8226 leukemia = system: RPMI-8226 leukemia
SF-268 CNS = system: SF-268 CNS
SF-295 CNS = system: SF-295 CNS
SF-539 CNS = system: SF-539 CNS
SK-MEL-2 melanoma = system: SK-MEL-2 melanoma
SK-MEL-28 melanoma = system: SK-MEL-28 melanoma
SK-MEL-5 melanoma = system: SK-MEL-5 melanoma
SK-OV-3 ovarian = system: SK-OV-3 ovarian
SN12C renal = system: SN12C renal
SNB-19 CNS = system: SNB-19 CNS
SR leukemia = system: SR leukemia
SW-620 colon = system: SW-620 colon
T-47D breast = system: T-47D breast
TK-10 renal = system: TK-10 renal
U251 CNS = system: U251 CNS
UACC-257 melanoma = system: UACC-257 melanoma
UACC-62 melanoma = system: UACC-62 melanoma
UO-31 renal = system: UO-31 renal

COC(=O)c1ccc(NC(=O)c2cc3c(cc2Br)OCO3)o1
TGI (786-0 renal): > 100 µM | TGI (A498 renal): > 100 µM | TGI (A549 NSCLC): > 100 µM | TGI (ACHN renal): > 100 µM | TGI (BT-549 breast): > 100 µM | TGI (CAKI-1 renal): > 100 µM | TGI (CCRF-CEM leukemia): > 100 µM | TGI (COLO 205 colon): > 100 µM | TGI (DU-145 prostate): > 100 µM | TGI (EKVX NSCLC): > 100 µM | TGI (HCC-2998 colon): > 100 µM | TGI (HCT-116 colon): > 100 µM | TGI (HCT-15 colon): > 100 µM | TGI (HL-60(TB) leukemia): > 100 µM | TGI (HOP-62 NSCLC): > 100 µM | TGI (HOP-92 NSCLC): > 100 µM | TGI (HT29 colon): > 100 µM | TGI (IGROV1 ovarian): > 100 µM | TGI (K-562 leukemia): > 100 µM | TGI (KM12 colon): > 100 µM | TGI (LOX IMVI melanoma): > 100 µM | TGI (M14 melanoma): > 100 µM | TGI (MCF7 breast): > 100 µM | TGI (MDA-MB-231 breast): > 100 µM | TGI (MDA-MB-435): > 100 µM | TGI (MDA-N): > 100 µM | TGI (MOLT-4 leukemia): > 100 µM | TGI (NCI-H226 lung): > 100 µM | TGI (NCI-H23 lung): > 100 µM | TGI (NCI-H522 lung): > 100 µM | TGI (NCI/ADR-RES ovarian): > 100 µM | TGI (OVCAR-3 ovarian): > 100 µM | TGI (OVCAR-4 ovarian): > 100 µM | TGI (OVCAR-5 ovarian): > 100 µM | TGI (OVCAR-8 ovarian): > 100 µM | TGI (PC-3 prostate): > 100 µM | TGI (RPMI-8226 leukemia): > 100 µM | TGI (SF-268 CNS): 69.8 µM | TGI (SF-295 CNS): > 100 µM | TGI (SF-539 CNS): > 100 µM | TGI (SK-MEL-2 melanoma): > 100 µM | TGI (SK-MEL-28 melanoma): > 100 µM | TGI (SK-MEL-5 melanoma): > 100 µM | TGI (SK-OV-3 ovarian): > 100 µM | TGI (SN12C renal): > 100 µM | TGI (SNB-19 CNS): > 100 µM | TGI (SR leukemia): > 100 µM | TGI (SW-620 colon): > 100 µM | TGI (T-47D breast): > 100 µM | TGI (TK-10 renal): > 100 µM | TGI (U251 CNS): > 100 µM | TGI (UACC-257 melanoma): > 100 µM | TGI (UACC-62 melanoma): > 100 µM | TGI (UO-31 renal): > 100 µM

From PubChem BioAssay (NCI)
